Assays:
[1] = tested on: Human immunodeficiency virus 1; test: Antiviral activity against HIV-1 IIIB infected in human MT4 cells assessed as reduction in virus induced cytopathic effect incubated for 5 days by MTT assay; type: functional, organism-based; settings: Human immunodeficiency virus 1, IIIB, MT4, 120 h
[2] = tested on: Human immunodeficiency virus 1; test: Antiviral activity against HIV-1 RES056 infected in human MT4 cells assessed as reduction in virus induced cytopathic effect incubated for 5 days by MTT assay; type: functional, organism-based; settings: Human immunodeficiency virus 1, RES056, MT4, 120 h
[3] = Cytotoxicity against human MT4 cells assessed as cell growth inhibition incubated for 5 days by MTT assay; type: toxicity, cell-based; settings: time 5 day
[4] = Selectivity index, ratio of CC50 for cytotoxicity against human MT4 cells assessed as reduction in cell viability to EC50 for antiviral activity against HIV-1 IIIB infected in human MT4 cells assessed as reduction in virus induced cytopathic effect; type: toxicity, cell-based; settings: read-out: Ratio CC50/EC50
[5] = tested on: Human immunodeficiency virus 1; test: Antiviral activity against NNRTI-resistant HIV-1 harboring L100I mutant infected in human MT4 cells assessed as virus-induced cytopathicity incubated for 5 days by MTT assay; type: functional, organism-based; settings: Human immunodeficiency virus 1, MT4, 120 h
[6] = tested on: Human immunodeficiency virus 1; test: Antiviral activity against NNRTI-resistant HIV-1 harboring K103N mutant infected in human MT4 cells assessed as virus-induced cytopathicity incubated for 5 days by MTT assay; type: functional, organism-based; settings: Human immunodeficiency virus 1, MT4, 120 h
[7] = tested on: Human immunodeficiency virus 1; test: Antiviral activity against NNRTI-resistant HIV-1 harboring Y181C mutant infected in human MT4 cells assessed as virus-induced cytopathicity incubated for 5 days by MTT assay; type: functional, organism-based; settings: Human immunodeficiency virus 1, MT4, 120 h
[8] = tested on: Human immunodeficiency virus 1; test: Antiviral activity against NNRTI-resistant HIV-1 harboring Y188L mutant infected in human MT4 cells assessed as virus-induced cytopathicity incubated for 5 days by MTT assay; type: functional, organism-based; settings: Human immunodeficiency virus 1, MT4, 120 h
[9] = tested on: Human immunodeficiency virus 1; test: Antiviral activity against NNRTI-resistant HIV-1 harboring E138K mutant infected in human MT4 cells assessed as virus-induced cytopathicity incubated for 5 days by MTT assay; type: functional, organism-based; settings: Human immunodeficiency virus 1, MT4, 120 h
[10] = tested on: Human immunodeficiency virus 1; test: Antiviral activity against NNRTI-resistant HIV-1 harboring F227L/V106A double mutant infected in human MT4 cells assessed as virus-induced cytopathicity incubated for 5 days by MTT assay; type: functional, organism-based; settings: Human immunodeficiency virus 1, MT4, 120 h
[11] = Selectivity index, ratio of CC50 for cytotoxicity against human MT4 cells assessed as reduction in cell viability to EC50 for antiviral activity against NNRTI-resistant HIV-1 harboring L100I mutant infected in human MT4 cells; type: toxicity, cell-based; settings: read-out: Ratio CC50/EC50
[12] = Selectivity index, ratio of CC50 for cytotoxicity against human MT4 cells assessed as reduction in cell viability to EC50 for antiviral activity against NNRTI-resistant HIV-1 harboring K103N mutant infected in human MT4 cells; type: toxicity, cell-based; settings: read-out: Ratio CC50/EC50
[13] = Selectivity index, ratio of CC50 for cytotoxicity against human MT4 cells assessed as reduction in cell viability to EC50 for antiviral activity against NNRTI-resistant HIV-1 harboring Y181C mutant infected in human MT4 cells; type: toxicity, cell-based; settings: read-out: Ratio CC50/EC50
[14] = Selectivity index, ratio of CC50 for cytotoxicity against human MT4 cells assessed as reduction in cell viability to EC50 for antiviral activity against NNRTI-resistant HIV-1 harboring Y188L mutant infected in human MT4 cells; type: toxicity, cell-based; settings: read-out: Ratio CC50/EC50
[15] = Selectivity index, ratio of CC50 for cytotoxicity against human MT4 cells assessed as reduction in cell viability to EC50 for antiviral activity against NNRTI-resistant HIV-1 harboring E138K mutant infected in human MT4 cells; type: toxicity, cell-based; settings: read-out: Ratio CC50/EC50
[16] = Selectivity index, ratio of CC50 for cytotoxicity against human MT4 cells assessed as reduction in cell viability to EC50 for antiviral activity against NNRTI-resistant HIV-1 harboring F227L/V106A double mutant infected in human MT4 cells; type: toxicity, cell-based; settings: read-out: Ratio CC50/EC50
[17] = Selectivity index, ratio of CC50 for cytotoxicity against human MT4 cells assessed as reduction in cell viability to EC50 for antiviral activity against HIV-1 RES056 infected in human MT4 cells assessed as reduction in virus induced cytopathic effect; type: toxicity, cell-based; settings: read-out: Ratio CC50/EC50
[18] = Fold resistance, ratio of EC50 for antiviral activity against NNRTI-resistant HIV-1 harboring L100I mutant infected in human MT4 cells assessed as virus-induced cytopathicity to EC50 for antiviral activity against HIV-1 IIIB infected in human MT4 cells assessed as reduction in virus induced cytopathic effect; type: functional
[19] = Fold resistance, ratio of EC50 for antiviral activity against NNRTI-resistant HIV-1 harboring K103N mutant infected in human MT4 cells assessed as virus-induced cytopathicity to EC50 for antiviral activity against HIV-1 IIIB infected in human MT4 cells assessed as reduction in virus induced cytopathic effect; type: functional
[20] = Fold resistance, ratio of EC50 for antiviral activity against NNRTI-resistant HIV-1 harboring Y181C mutant infected in human MT4 cells assessed as virus-induced cytopathicity to EC50 for antiviral activity against HIV-1 IIIB infected in human MT4 cells assessed as reduction in virus induced cytopathic effect; type: functional
[21] = Fold resistance, ratio of EC50 for antiviral activity against NNRTI-resistant HIV-1 harboring Y188L mutant infected in human MT4 cells assessed as virus-induced cytopathicity to EC50 for antiviral activity against HIV-1 IIIB infected in human MT4 cells assessed as reduction in virus induced cytopathic effect; type: functional
[22] = Fold resistance, ratio of EC50 for antiviral activity against NNRTI-resistant HIV-1 harboring E138K mutant infected in human MT4 cells assessed as virus-induced cytopathicity to EC50 for antiviral activity against HIV-1 IIIB infected in human MT4 cells assessed as reduction in virus induced cytopathic effect; type: functional
[23] = Fold resistance, ratio of EC50 for antiviral activity against NNRTI-resistant HIV-1 harboring F227L/V106A double mutant infected in human MT4 cells assessed as virus-induced cytopathicity to EC50 for antiviral activity against HIV-1 IIIB infected in human MT4 cells assessed as reduction in virus induced cytopathic effect; type: functional
[24] = Fold resistance, ratio of EC50 for antiviral activity against NNRTI-resistant HIV-1 harboring F227L/V106A double mutant infected in human MT4 cells assessed as virus-induced cytopathicity to EC50 for antiviral activity against HIV-1 RES056 infected in human MT4 cells assessed as reduction in virus induced cytopathic effect; type: functional
[25] = target: Human immunodeficiency virus type 1 reverse transcriptase (Human immunodeficiency virus 1, UniProt Q72547); test: Inhibition of wild type HIV-1 reverse transcriptase assessed as reduction of biotin-dUTP incorporation into […] using ABTS as substrate incubated for 1 hrs by ELISA analysis

Row | SMILES | EC50 [1] [nM] | EC50 [2] [µM] | CC50 at 120 h [3] [µM] | selectivity ratio [4] | EC50 [5] [nM] | EC50 [6] [nM] | EC50 [7] [nM] | EC50 [8] [nM] | EC50 [9] [nM] | EC50 [10] [nM] | selectivity ratio [11] | selectivity ratio [12] | selectivity ratio [13] | selectivity ratio [14] | selectivity ratio [15] | selectivity ratio [16] | selectivity ratio [17] | Ratio EC50 [18] | Ratio EC50 [19] | Ratio EC50 [20] | other results
1 | Cc1cc(C#N)cc(C)c1Oc1nc(NC2CCN(c3ccc(NS(N)(=O)=O)cc3)CC2)ncc1C(N)=O | 33 | 152 | 176 | 5370 | 370 | 37 | 176 | 118 | 120 | 584 | 474 | 4730 | 997 | 1480 | 1470 | 301 | 1 | 11.3 | 1.1 | 5.4 | Ratio EC50 [21]: 3.6; Ratio EC50 [22]: 3.7; Ratio EC50 [23]: 17.9; Ratio EC50 [24]: 4648.8; IC50 [25]: 941 nM
2 | Cc1cc(C#N)cc(C)c1Oc1nc(NC2CCN(c3ccc(NS(=O)(=O)N(C)C)cc3)CC2)ncc1C(N)=O | 7 | 15.6 | 209 | 31700 | 139 | 11 | 54 | 33 | 26 | 34 | 1500 | 18700 | 3910 | 6350 | 8010 | 6160 | 13 | 21.1 | 1.7 | 8.1 | Ratio EC50 [21]: 5; Ratio EC50 [22]: 3.9; Ratio EC50 [23]: 5.1; Ratio EC50 [24]: 2359.1; IC50 [25]: 52 nM
3 | Cc1cc(C#N)cc(C)c1Oc1nc(NC2CCN(Cc3ccc(C(N)=O)cc3)CC2)ncc1C(N)=O | 45 | 17.8 | > 250 | > 5560 | 73 | 45 | 286 | 771 | 380 | 4520 | > 344 | > 5580 | > 876 | > 324 | > 659 | > 55 | > 14 | 1.6 | 1 | 6.3 | Ratio EC50 [21]: 17.1; Ratio EC50 [22]: 8.4; Ratio EC50 [23]: 100.3; Ratio EC50 [24]: 394.1; IC50 [25]: 158 nM
4 | Cc1cc(C#N)cc(C)c1Oc1nc(NC2CCN(Cc3ccc(S(C)(=O)=O)cc3)CC2)ncc1C(N)=O | 6 | 3.45 | > 234 | > 41100 | 11 | 5 | 34 | 69 | 149 | 327 | > 221 | > 4460 | > 6790 | > 3400 | > 1560 | > 716 | > 68 | 1.9 | 0.9 | 6 | Ratio EC50 [21]: 12.1; Ratio EC50 [22]: 26.2; Ratio EC50 [23]: 57.4; Ratio EC50 [24]: 605.5; IC50 [25]: 122 nM
5 | Cc1cc(C#N)cc(C)c1Oc1nc(NC2CCN(c3ccc(NS(C)(=O)=O)cc3)CC2)ncc1C(N)=O | 19 | 33.2 | > 233 | > 12100 | 247 | 154 | 259 | 24 | 226 | 781 | > 946 | > 1510 | > 901 | > 9940 | > 1040 | > 299 | > 7 | 12.7 | 8 | 13.4 | Ratio EC50 [21]: 1.2; Ratio EC50 [22]: 11.6; Ratio EC50 [23]: 40.3; Ratio EC50 [24]: 1716.7; IC50 [25]: 200 nM
